21 molecules from article PMC11995724, “Antibiotic target discovery by integrated phenotypic and activity-based profiling of electrophilic fragments” (Cell chemical biology, 2025) can be followed below.

Broadly, the viability is a read-out of living cells in per cent, often relative to untreated cells.

A short description of the data set: in vitro. To be noted: human, hek293t cells.
Turning to `O=C(CCl)Nc1cc2c(cc1[N+](=O)[O-])OCCCO2` [4-O05, 2-chloro-N-(8-nitro-3,4-dihydro-2H-1,5-benzodioxepin-7-yl)acetamide], the viability at 48 h, 25 µM amounted to 103%.
The figure for `CC(Cl)C(=O)NC1CCCCC1` (stereo not drawn) [4-O06, 2-chloro-N-cyclohexylpropanamide] is 115%; for `COc1cc([N+](=O)[O-])ccc1NC(=O)CCl` [4-O07, 2-chloro-N-(2-methoxy-4-nitrophenyl)acetamide] it is 1.19%.
The figure for `CC(Cl)C(=O)Nc1ccc(F)c(F)c1F` (stereo not drawn) [4-O08, 2-chloro-N-(2,3,4-trifluorophenyl)propanamide] is 88.8%; for `N#Cc1cc([N+](=O)[O-])ccc1NC(=O)CCl` [4-O09, 2-chloro-N-(2-cyano-4-nitrophenyl)acetamide] it is 1.1%.
With `CCC(C)c1ccccc1NC(=O)C(C)Cl` (stereo not drawn) [4-O10, N-[2-(butan-2-yl)phenyl]-2-chloropropanamide], the viability at 48 h, 25 µM was 85.1%.
The figure for `Cc1nn(Cc2ccccc2)c(C)c1CNC(=O)CCl` [4-O11, N-[(1-benzyl-3,5-dimethyl-1H-pyrazol-4-yl)methyl]-2-chloroacetamide] is 1.47%; for `O=C(CCl)NCCc1ccc(Cl)cc1` [4-O12, 2-chloro-N-[2-(4-chlorophenyl)ethyl]acetamide] it is 7.11%; for `O=C(CCl)Nc1ccccc1Sc1ccc(Cl)cc1` [4-O13, 2-chloro-N-{2-[(4-chlorophenyl)sulfanyl]phenyl}acetamide] it is 0.318%.
The figure for `CC(C)c1ccc(C(NC(=O)CCl)C(C)C)cc1` (stereo not drawn) [4-O14, 2-chloro-N-{2-methyl-1-[4-(propan-2-yl)phenyl]propyl}acetamide] is 0.576%; for `CCOC(=O)c1c(NC(=O)CCl)sc(C)c1C` [4-O15, ethyl 2-(2-chloroacetamido)-4,5-dimethylthiophene-3-carboxylate] it is 57%; for `O=C(CCl)Nc1c(Cl)c(Cl)cc(Cl)c1Cl` [4-O16, 2-chloro-N-(2,3,5,6-tetrachlorophenyl)acetamide] it is 1.16%.
The figure for `COc1ccccc1NC(=O)c1ccc(NC(=O)CCl)cc1` [4-O17, 4-(2-chloroacetamido)-N-(2-methoxyphenyl)benzamide] is -0.113%; for `O=C(CCl)N1N=C(c2cccs2)CC1c1cccs1` (stereo not drawn) [4-O18, 1-[3,5-bis(thiophen-2-yl)-4,5-dihydro-1H-pyrazol-1-yl]-2-chloroethan-1-one] it is 0.013%.
For `O=C(CCl)NCC1(c2ccccc2)CCC1` [4-O19, 2-chloro-N-[(1-phenylcyclobutyl)methyl]acetamide], the viability at 48 h, 25 µM worked out at 0.976%.
The figure for `O=C(CCl)N1N=C(c2cccs2)CC1c1ccc(F)cc1` (stereo not drawn) [4-O20, 2-chloro-1-[5-(4-fluorophenyl)-3-(thiophen-2-yl)-4,5-dihydro-1H-pyrazol-1-yl]ethan-1-one] is 0.502%; for `Cc1c(C#N)c(NC(=O)CCl)n(Cc2ccc(F)cc2)c1C` [4-O21, 2-chloro-N-{3-cyano-1-[(4-fluorophenyl)methyl]-4,5-dimethyl-1H-pyrrol-2-yl}acetamide] it is 0.102%.
To `Cc1ccc(C2=NN(C(=O)CCl)C(c3cccs3)C2)cc1` (stereo not drawn) [4-O22, 2-chloro-1-[3-(4-methylphenyl)-5-(thiophen-2-yl)-4,5-dihydro-1H-pyrazol-1-yl]ethan-1-one] belongs -0.0957%.
The figure for `CCc1ccc(NC(=O)CCl)cc1` [4-P03, 2-chloro-N-(4-ethylphenyl)acetamide] is 0.338%.
In the case of `NC(=O)c1ccc(NC(=O)CCl)cc1` [4-P04, 4-(2-chloroacetamido)benzamide], the viability at 48 h, 25 µM was determined as 0.712%.
For `CCc1ccccc1NC(=O)CN(C)C(=O)C(C)Cl` (stereo not drawn) [4-P05, 2-chloro-N-{[(2-ethylphenyl)carbamoyl]methyl}-N-methylpropanamide], the viability at 48 h, 25 µM worked out at 81%.
